Tests used:
leukocytes and platelets = assay: Leukocytes and platelets by hematology analyzer, B16 model with carboplatin chemotherapy; format: in vivo, C57BL/6J mice; settings: BG136 4 mg/kg tail vein with carboplatin 30 mg/kg i.p. twice a week; day 15; FIGS. 17-21
Method: (§1) A cell suspension of 3×10^5 mouse melanoma cell line B16 (presented by PerkinElmer) was injected subcutaneously into C57BL/6J mice (females, 6-8 weeks old, purchased from Jinan Panyue Experimental Animal Company) (Overwijk & Restifo, 2001). About 2 days after tumor implantation, carboplatin (30 mg/kg, twice a week) was injected intraperitoneally and BG136 (4 mg/kg) or lentinan LNT (2 mg/kg) was injected via the tail vein, and tumor volume were measured during administration, and on day 15, after animals were sacrificed, tumor weight was measured. Blood was taken from the heart after animals were sacrificed, placed in EDTA-anticoagulation tubes. After mixing, 50 μl of whole blood was taken and the immune cell concentration was measured by a hematology analyzer.

leukocytes = assay: Immune cell concentration by hematology analyzer, B16 model after radiotherapy; format: in vivo, C57BL/6J mice; settings: local radiotherapy 10 Gy, glucan by tail vein once a week, FIGS. 8-15
Method: A cell suspension of 3×10^5 mouse melanoma cell line B16 (presented by PerkinElmer) was injected subcutaneously into C57BL/6J mice (female, 6-8 weeks old, purchased from Jinan Pengyue Experimental Animal Company)(Overwijk & Restifo, 2001). About 5 days after tumor implantation, local radiotherapy (tumor injection area, 10 Gy) was applied. On day 6 and day 14, vehicle or β-1,3/1,6-glucan was administered (tail vein injection, once a week), and on day 17, after the animals were sacrificed, tumor weight was measured. Blood was taken from the heart after animal sacrificed, placed into EDTA-anticoagulation tubes. After mixing, 50 μl of whole blood was taken and the immune cell concentration was measured by a hematology analyzer.

[1] = tested on: mouse melanoma cell line B16; assay: B16 syngeneic tumor model after local radiotherapy: tumor volume, tumor weight; format: in vivo, C57BL/6J mice; settings: local radiotherapy 10 Gy day 5; glucan by tail vein once a week (day 6, day 14); sacrificed day 17; FIGS. 5-7
Method: A cell suspension of 3×10^5 mouse melanoma cell line B16 (presented by PerkinElmer) was injected subcutaneously into C57BL/6J mice (female, 6-8 weeks old, purchased from Jinan Pengyue Experimental Animal Company)(Overwijk & Restifo, 2001). About 5 days after tumor implantation, local radiotherapy (tumor injection area, 10 Gy) was applied. On day 6 and day 14, vehicle or β-1,3/1,6-glucan was administered (tail vein injection, once a week), during this period, tumor volume and mouse body weight were measured, and on day 17, after the animals were sacrificed, tumor weight was measured.

platelets = assay: Platelet concentration by hematology analyzer, B16 model with anti-PD-1 antibody; format: in vivo, C57BL/6J mice; settings: blood day 14, FIG. 3
[2] = tested on: immune cell subpopulations in blood and tumors; assay: Flow cytometric analysis of immune cell subpopulations in blood and tumors, B16 model with anti-PD-1 antibody; format: in vivo, C57BL/6J mice
Method: (§2) A cell suspension of 3×10^5 mouse melanoma cell line B16 (presented by PerkinElmer) was injected subcutaneously into C57BL/6J mice (female, 6-8 weeks old, purchased from Jinan Pengyue Experimental Animal Company). The administration experiments were performed about 4 days after implantation when B16 tumors have grown to be palpable. Mice were divided into four groups and treated with vehicle or β-1,3/1,6-glucan (4 mg/kg, i.v., twice a week) alone, or in combination with anti-PD-1 antibody (anti-mouse PD-1 antibody purchased from BioxCell, 200 μg per mouse, i.v., once a week). Tumor volumes were evaluated and tumor weights were recorded. After sacrifice of mice, blood and tumor samples were collected for flow cytometric analysis.
Blood samples were collected by cardiac puncture, collected into EDTA-anticoagulation tubes. 50 μl of whole blood was taken for blood analysis, 50 μl of whole blood was taken for erythrocyte lysis (erythrocyte lysis buffer, Meltenyi), and the remaining whole blood was centrifuged at 3500 rpm for 7 min and the plasma was taken and stored at −80° C. Spleens and thymus were weighed for recording. Subcutaneous tumors of mice, about 0.2-0.5 g of tumors tissues, were taken, and single cell suspensions from the tumor samples were obtained by Mouse Tumor Dissociation Kit (Meltenyi). The blood cells after erythrocyte lysis as well as the dissociated tumor cell suspensions were subjected to subsequent processing, as well as flow cytometric detection
The single-cell suspensions were blocked with blocking buffer (20% FBS, 1:100 CD16/CD32 antibody and 1:100 rat IgG) for 20 min, and incubated and stained with the corresponding immune cell surface protein antibodies (CD11 b-PE, CD4-BV510, CD8-PerCP-Cy5.5, CD19-APC, CD3-FITC, CD206-PE-Cy7, Ly6C-APC) for 30 minutes at 4° C. Analysis of immune cell population ratios was performed by FACS
Arial III (BD Biosciences). The specific procedure was delineating the cell population in the FSC/SSC quadrant, delineating single cell population by FSC-H and FSC-A, and delineating corresponding immune cells by immune cell surface markers, and calculating the cell ratio or relative concentration.
(§3) Combination treatment also upregulates pro-inflammatory monocyte-derived macrophages (CD11b+Ly6Chi, FIG. 1E) in the peripheral blood. […] In addition, it was detected that the combination application of β-1,3/1,6-glucan and PD-1 antibodies enhances the percentage of CD4 and CD8 T cells in the blood and tumor (FIG. 2). It was shown that β-1,3/1,6-glucan and anti-PD-1 antibodies synergistically increase tumor infiltration of pro-inflammatory macrophages, decrease the percentage of immunosuppressive TAM, and increase the ratio of acquired immune cells T and B cells, resulting in building up a more pro-inflammatory and anti-tumoral tumor microenvironment.

[3] = tested on: mouse melanoma cell line B16; assay: B16 syngeneic tumor model with carboplatin chemotherapy: tumor volume, tumor weight; format: in vivo, C57BL/6J mice; settings: BG136 4 mg/kg tail vein with carboplatin 30 mg/kg i.p. twice a week; sacrificed day 15; FIGS. 17-21
Method: as §1

[4] = tested on: lymphocytes in peripheral blood; assay: Relative lymphocyte concentration in peripheral blood by FACS, B16 model with anti-PD-1 antibody; format: in vivo, C57BL/6J mice; settings: 8 mg/kg β-1,3/1,6-glucan combined with PD-1 antibody, versus PD-1 antibody alone; FIG. 4
Method: as §2, with “Mice were divided into four groups and treated with vehicle or β-1,3/1,6-glucan (4 mg/kg, i.v., twice a week) alone, or in combination with anti-PD-1 antibody (anti-mouse PD-1 antibody purchased from BioxCell, 200 μg per mouse, i.v., once a week).” left out
The experimental method was the same as in Example 1. On day 14, blood was taken from the heart after animal sacrificed, and placed in EDTA-anticoagulation tubes. After mixing, 50 μl of whole blood was taken. 5 μl of GFP microspheres were added to each sample for erythrocyte lysis.
(§4) The single-cell suspensions were blocked with blocking buffer (20% FBS, 1:100 CD16/CD32 antibody and 1:100 rat IgG) for 20 min, and incubated and staining with the corresponding immune cell surface protein antibodies (CD4-BV510, CD8-PerCP-Cy5.5, CD19-APC, CD3-FITC) for 30 minutes at 4° C. Analysis of immune cell population ratios was performed by FACS Arial III (BD Biosciences). The specific procedure was delineating the cell population in the FSC/SSC quadrant, delineating the single cell population by FSC-H and FSC-A, and delineating the corresponding immune cells by immune cell surface markers, and calculating the relative immune cell concentration.

[5] = tested on: CD4, CD8 and CD19 cells in peripheral blood; assay: Relative CD4, CD8, CD19 cell concentration in peripheral blood by FACS, B16 model after radiotherapy; format: in vivo, C57BL/6J mice; settings: 8 mg/kg β-1,3/1,6-glucan after radiotherapy, FIG. 16
Method: On day 14, blood was taken from the heart after animals were sacrificed, and placed in EDTA-anticoagulation tubes. After mixing, 50 μl of whole blood was taken. 5 μl of GFP microspheres were added to each sample for erythrocyte lysis.
as §4, with “CD19-APC)” for “CD19-APC, CD3-FITC)”, “Anal” for “Arial”

[6] = tested on: mouse melanoma cell line B16; assay: B16 syngeneic tumor model, β-1,3/1,6-glucan with anti-PD-1 antibody: tumor volume, tumor weight, body weight; format: in vivo
Method: as §2, §3

[7] = combination with PD-1 antibody, FIG. 2
[8] = combination with anti-PD-1 antibody, flow cytometry, FIG. 1D
[9] = combination with anti-PD-1 antibody, within the tumor, FIG. 1F

β-1,3/1,6-glucan
decrease in platelets after carboplatin administration (leukocytes and platelets): reverses | immune response / immunosuppression after carboplatin administration (immune cell concentration) (leukocytes and platelets): reverses the immunosuppression | concentration of immune cells in blood after radiotherapy (leukocytes): increasing the concentration of immune cells | anti-tumor effect in combination with radiotherapy (tumor volume, tumor weight) [1]: enhances the anti-tumor effect of radiotherapy | platelet concentration (platelets; single agent alone): does not affect | platelet concentration, platelet-lowering side effect of PD-1 antibody (platelets; β-1,3/1,6-glucan in combination with PD-1 antibody): reverses the platelet-lowering side effect | percentage of immunosuppressive tumor-associated macrophages TAM (CD11b+CD206+) ([2]; combination treatment compared with anti-PD-1 antibody alone, within the tumor, FIG. 1G): reduced | percentage of CD4 T cells in the blood and tumor [2, 7]: enhances | percentage of CD8 T cells in the blood and tumor [2, 7]: enhances | pro-inflammatory monocyte-derived macrophages (CD11b+Ly6Chi) in the peripheral blood ([2]; combination with anti-PD-1 antibody, FIG. 1E): upregulates | percentage of CD11b+ cells in the blood [2, 8]: decreases | percentage of CD19+ cells in the blood [2, 8]: increases | tumor infiltration of myeloid cells (CD11b+) [2, 9]: more infiltration | tumor infiltration of pro-inflammatory macrophages (CD11b+Ly6Chi) [2, 9]: more infiltration | tumor suppressive effect in combination with carboplatin [3]: enhances the tumor suppressive effect of carboplatin | relative concentration of CD3 in blood [4]: further increase | relative concentration of CD4 in blood [4]: further increase | relative concentration of CD8 in blood [4]: further increase | relative concentration of CD19 in blood [4]: further increase | cell concentration of CD4 after radiotherapy [5]: increases | cell concentration of CD8 after radiotherapy [5]: increases | cell concentration of CD19 after radiotherapy [5]: increases | body weight and death of mice during treatment ([6]; combination of β-1,3/1,6-glucan 4 mg/kg and anti-PD-1 antibody 200 μg/mouse, FIG. 1C): no significant changes | tumor growth inhibition, combination versus single treatment ([6]; β-1,3/1,6-glucan 4 mg/kg i.v. twice a week combined with anti-PD-1 antibody 200 μg/mouse i.v. once a week, FIG. 1A, 1B): more effectively inhibits tumor growth than single treatment | anti-PD-1 antibody-induced tumor regression ([6]; β-1,3/1,6-glucan 4 mg/kg i.v. twice a week combined with anti-PD-1 antibody 200 μg/mouse i.v. once a week, sacrificed day 14, FIG. 1A, 1B): enhances anti-PD-1 antibody-induced tumor regression
